Patent publication EP0351625B1, “Anti-HIV activity of BV-3608” (Bristol-Myers Squibb Company, priority 1988, dated 1990)

How the values were obtained:
[1] = Acute toxicity in mice after single intravenous and intramuscular administrations; conditions: mouse, in vivo
Description: The acute toxicity of Compound No. 28567 was determined in mice after single intravenous and intramuscular administrations.

[2] = Cytotoxicity on uninfected MT-4 cells (viable cell count, trypan blue dye exclusion); type: cell-based; conditions: human
Description: (§1) MT-4 cells are maintained at 37°C in the complete medium. Two days before the start of an experiment, viable cells are counted by the trypan blue dye exclusion method and the concentration is adjusted to 30 x 10⁴ cells/mL.
The test substance is dissolved in dimethylsulfoxide (DMSO) and the solutions are then diluted with complete medium to concentrations of 10, 5.0, 2.5, and 1.25 mcg/ml to provide test solutions. Matched portions of HTLV-IIIB infected and uninfected MOLT-4 cells are adjusted to 60 x 10⁴ cells/mL and mixed with the same volume of diluted test solution to make the final concentration of 30 x 10⁴ cells/mL, and 5.0, 2.5, […], and 0.63 mcg/mL of test substance. To measure anti-HIV activity, the number of viable cells surviving in the test medium are counted by the trypan blue dye-exclusion method on day 3 and day 6 after infection of the cells.
Figure 1 illustrates the inhibition of cytopathic effect of the HIV virus on MT-4 cells by Compound No. 28567. First, the unshaded bars show the lack of cytotoxicity of the compound on uninfected MT-4 cells. Only at concentrations of 28567 in excess of 30 µg/ml is a noticeable or consistent reduction in the number of cells observed after 3 or 6 days, and even at 120 mg/ml, 60-70% of the cells survive.

[3] = system: MOLT-4 and MOLT-4/HTLV-IIIB; test: Cell fusion / giant cell formation in MOLT-4 and MOLT-4/HTLV-IIIB co-culture (cell size distribution); type: cell-based; conditions: 25 µg/ml in medium, mixed culture; 11.8% without compound
Description: The effect on cell fusion which results in cell to cell infection and giant cell formation may be examined as follows. MOLT-4 and its virus-producing cell, MOLT-4/HTLV-IIIB are mixed in 1:1 in proportion of cell number and adjusted to a final concentration of 5 x 10⁵ cells/ml with the medium containing various concentrations of compounds, and then incubated for 10 hours in a CO₂ incubator. After incubation, the distribution of cell size is measured by a cell multisizer (Coulter Electronics Ltd., Luton, England). Viable cells are counted by trypan blue dye exclusion method. Giant cell formation is observed under a phase- contrast microscope. Particles with diameters of from 3 to 100 µm in diameter are observed in the co-cultures. Only those particles having a diameter of more than 9 µm are considered to be cells. Cell sizes in each of the cultures of MOLT-4 or MOLT-4/HTLV-IIIB are similar, and the proportion of cell particles with 12-14 µm diameters are virtually the same in each culture. The percentage of cell particles having more than a 20 µm diameter was 2.7% and in the MOLT-4 cell culture, and 2.4% in the MOLT-4/HTLV-IIIB cell culture. […] This is a reflection of the infectivity by cell-to-cell fusion of the MOLT-4/HTLV-IIIB cells for the uninfected MOLT-4 cells. The test method measures the ability of test substances to prevent or reduce this effect. […]

[4] = system: HTLV-IIIB infected MT-4 cells; test: Inhibition of cytopathic effect of HIV on infected MT-4 cells (viable cell count); type: cell-based; conditions: Human immunodeficiency virus 1, IIIB, MT4; HIV-infected MT-4 cells, 3 or 6 days (Figure 1); read-out: concentration affording virtually complete protection of MT-4 cells
Description: The cell line MT-4 disclosed by Harada, S. et al., in Virology, Vol. 146, pp. 272-281 (1985) is appropriate. This cell line features rapid and efficient replication of HTLV-III, followed by cytolysis.
as §1
Infection of the MT-4 cells with the virus is made at a multiplicity of infection (MOI) of 0.002. MT-4 cells (60 x 10⁴ cells/mL) are mixed with a 1:100 dilution of the viral preparation and incubated for 1 hour at 37°C for adsorption of the virus. After adsorption, HTLV-IIIB infected MT-4 cells are washed once and resuspended with complete medium. […]
The test substance is dissolved in dimethylsulfoxide (DMSO) and the solutions are then diluted with complete medium to concentrations of 10, 5.0, 2.5, and 1.25 mcg/ml to provide test solutions. […] To measure anti-HIV activity, the number of viable cells surviving in the test medium are counted by the trypan blue dye-exclusion method on day 3 and day 6 after infection of the cells. […]

## CN[C@@H]1[C@H](O[C@@H]2OC[C@@H](O)[C@H](O)[C@H]2O)[C@@H](O)[C@H](O[C@H]2c3cc(C)c(C(=O)N[C@H](C)C(=O)O)c(O)c3-c3c(cc4c(c3O)C(=O)c3cc(OC)cc(O)c3C4=O)[C@@H]2O)O[C@@H]1C [Compound No. 28567]
[1]; 400 mg/kg
  sign of toxicity: no sign of toxicity
[1]; iv, read-out: LD₅₀
  LD50: 140 mg/kg
[2]; after 3 or 6 days (Figure 1), read-out: concentration at which a noticeable or consistent reduction in the number of cells is observed
  MCC: > 30 µg/mL
[2]; at 120 mg/ml (so in the source), 3 or 6 days, read-out: cells survive
  viability: 60 to 70%
[3]
  proportion of particles exceeding 20 µm: 2.7%
[4]
  minimal effective concentration: ≥ 3.5 µg/mL
